Molecules are shown by their SMILES.

This assay concerns the target High affinity nerve growth factor receptor (Homo sapiens, UniProt P04629). Nature of the assay: Functional Activity Assay: TrkA functional activity was measured using a DiscoverX PathHunter assay. In this assay, U2OS cells express the human TrkA receptor as a fusion with the weakly complementing fragment of B-galactosidase, which DiscoverX calls “Prolink (PK)”; additionally, Shcl is fused with a larger fragment, which is called “Enzyme Acceptor (EA)”. Activation of the TrkA receptor, upon NGF addition, results in the kinase domain being phosphorylated, resulting in subsequent recruitment of Shcl-EA protein. That recruitment results in an active B-galactosidase enzyme that is detected by addition of a chemiluminescent substrate. The human p75NTR protein was also expressed as a co-receptor for NGF.All reagents were purchased from DiscoverX, except for the receptor agonists (NGF, BDNF, NT3) which were purchased from Peprotech. Cells were expanded and frozen into cryovials, and stored in the vapor phase of liquid nitrogen, and thawed immediately before use. Thawed cells were added to a 384-well plate at 7500 cells/well, and allowed to incubate overnight. Compound at various concentrations was added the following morning and allowed to incubate on cells for 1 h. Then, NGF was added at a concentration sufficient to elicit ˜80% of a maximal response and allowed to incubate for 3 h at ambient temperature.

Sequence of High affinity nerve growth factor receptor (P04629 whole entry, the tested form may be a part): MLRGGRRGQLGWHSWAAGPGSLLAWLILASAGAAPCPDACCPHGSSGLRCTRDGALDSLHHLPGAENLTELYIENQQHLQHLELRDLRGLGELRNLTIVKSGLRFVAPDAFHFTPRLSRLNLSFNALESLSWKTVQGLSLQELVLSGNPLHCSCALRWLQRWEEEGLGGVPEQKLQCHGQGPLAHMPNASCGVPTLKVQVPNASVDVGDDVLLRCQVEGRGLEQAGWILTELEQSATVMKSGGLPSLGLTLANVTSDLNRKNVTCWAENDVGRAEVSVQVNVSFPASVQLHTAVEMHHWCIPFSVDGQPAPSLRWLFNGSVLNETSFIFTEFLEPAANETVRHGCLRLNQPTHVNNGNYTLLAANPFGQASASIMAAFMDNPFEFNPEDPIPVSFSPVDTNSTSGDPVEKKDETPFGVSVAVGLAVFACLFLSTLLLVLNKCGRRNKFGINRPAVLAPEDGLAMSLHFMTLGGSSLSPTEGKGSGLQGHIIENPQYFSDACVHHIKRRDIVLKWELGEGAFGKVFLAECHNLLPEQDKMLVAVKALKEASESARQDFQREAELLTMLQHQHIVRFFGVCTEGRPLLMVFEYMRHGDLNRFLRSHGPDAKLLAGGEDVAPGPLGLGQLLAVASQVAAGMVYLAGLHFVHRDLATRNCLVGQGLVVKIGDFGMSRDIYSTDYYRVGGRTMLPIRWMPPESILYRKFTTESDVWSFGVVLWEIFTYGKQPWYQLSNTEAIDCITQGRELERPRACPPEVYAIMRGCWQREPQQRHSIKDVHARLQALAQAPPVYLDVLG

Take `Cc1ncc(NC(=O)c2cc(-c3ccn(C)n3)c(C(F)(F)F)cc2F)c(-c2ccccc2)n1`: the IC50 (in general, the concentration that inhibits the measured activity by half) turned out to be 1 nM.

The values above are taken from ChEMBL document CHEMBL5726597, “TrkA kinase inhibitors, compositions and methods thereof” (2017).
